Data: PMC3445454, “Broad and Cross-Clade CD4^+ T-Cell Responses Elicited by a DNA Vaccine Encoding Highly Conserved and Promiscuous HIV-1 M-Group Consensus Peptides” (PLoS ONE, 2012)
Changes are numbered by the printed parent chain. Read-outs that look alike come from different tables or passages of the source. Ends that are not written are not given here.

Experiments:
Test in all cases: biochemical
Type in all cases: binding
[1] = target: HLA-DR DRB1*03:01 (Homo sapiens, UniProt P01903+P01911, A100K/A102G/A103R/A169T/F55Y/I96L/K41T/L162R/M171V/P40S/Q125H/Q178H/Q39Y/R42S/S66N/T106N/T262R/W38E/Y61H)
[2] = target: HLA-DR DRB1*09:01 (Homo sapiens, UniProt P01903+P01911, A100R/A103E/D57H/D86V/F55Y/F60I/F76Y/I96F/K127E/L162R/M171V/P40D/Q125H/Q99R/R33Q/R42F/S133A/S66N/T210M/V115G/W38K/Y107V/Y59G/Y89S)
[3] = target: HLA-DR DRB1*11:01 (Homo sapiens, UniProt P01903+P01911, A100R/A169T/A87E/I96F/K41T/L162R/M171V/P40S/Q125H/Q178H/Q39Y/Q99D/R42S/S66Y/T262R/V115G/W38E)
[4] = target: HLA-DR DRB1*12:01 (Homo sapiens, UniProt P01903+P01911, A100R/A169T/D57E/D86V/F55L/H45Y/K41T/L162R/M171V/P40S/Q125H/Q178H/Q39Y/Q99D/R42G/S66L/T262R/V114A/V67L/W38E/Y59H/Y61H/Y89S)
[5] = target: HLA-DR DRB1*15:01 (Homo sapiens, UniProt P01903+P01911); details: read-out: Binding capacity/IC50 (nM) DRB1*15:01
[6] = target: HLA-DR DRB1*16:02 (Homo sapiens, UniProt P01903+P01911, A100R/F76Y/I96L/Q99D/V115G)
[7] = target: HLA-DR DRB3*02:02 (Homo sapiens, UniProt P01903+P79483, A212P/D57E/F66Y/L67A/R103Q/R218S/R40L/S89Y/T80R/V86D/Y55F/Y59H)
[8] = target: HLA-DR DRB4*01:01 (Homo sapiens, UniProt P01903+P13762, G164S)
[9] = target: HLA-DR DRB5*01:01 (Homo sapiens, UniProt P01903+Q30154)
[10] = target: T1, HLA-DP DPA1*01:03/DPB1*02:01 (Homo sapiens, UniProt P04440+P20036, A65V/A84D/A85E/K98E)
T1 sequence (P20036 29-260): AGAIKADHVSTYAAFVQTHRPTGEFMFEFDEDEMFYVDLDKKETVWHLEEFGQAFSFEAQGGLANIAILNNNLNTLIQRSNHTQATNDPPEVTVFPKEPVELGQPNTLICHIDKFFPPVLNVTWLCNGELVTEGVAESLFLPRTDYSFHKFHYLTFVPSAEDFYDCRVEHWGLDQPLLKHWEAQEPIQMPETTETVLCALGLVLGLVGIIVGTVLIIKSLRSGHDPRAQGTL
T1 sequence (P04440 30-258 A65V/A84D/A85E/K98E): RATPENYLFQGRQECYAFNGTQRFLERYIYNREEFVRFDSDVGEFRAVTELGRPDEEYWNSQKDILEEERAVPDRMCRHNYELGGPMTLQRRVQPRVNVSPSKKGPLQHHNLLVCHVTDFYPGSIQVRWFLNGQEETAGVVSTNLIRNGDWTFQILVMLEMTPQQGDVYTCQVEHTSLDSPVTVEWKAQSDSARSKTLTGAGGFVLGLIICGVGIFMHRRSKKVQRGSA

[11] = target: T2, HLA-DP DPA1*01:03/DPB1*04:01 (Homo sapiens, UniProt P04440+P20036)
T2 sequence (P20036 29-260): T1 sequence (P20036 29-260)
T2 sequence (P04440 30-258): T1 sequence (P04440 30-258 A65V/A84D/A85E/K98E) with V36A, D55A, E56A, E69K

[12] = target: T3, HLA-DP DPA1*02:01/DPB1*14:01 (Homo sapiens, UniProt P04440+P20036, A65V/A84D/A85E/E86D/F191V/F38H/G113D/G114E/G40L/I94L/K142R/L158P/L37V/M105V/M116V/M62Q/P115A/Q81R/R125K/T114A/T199I/T259P)
T3 sequence (P20036 29-260 A42M/M62Q/Q81R/T114A/K142R/L158P/F191V/T259P): T1 sequence (P20036 29-260) with A14M, M34Q, Q53R, T86A, K114R, L130P, F163V, T231P
T3 sequence (P04440 30-258 L37V/F38H/G40L/A65V/A84D/A85E/E86D/I94L/M105V/G113D/G114E/P115A/M116V/R125K/T199I/R223Q): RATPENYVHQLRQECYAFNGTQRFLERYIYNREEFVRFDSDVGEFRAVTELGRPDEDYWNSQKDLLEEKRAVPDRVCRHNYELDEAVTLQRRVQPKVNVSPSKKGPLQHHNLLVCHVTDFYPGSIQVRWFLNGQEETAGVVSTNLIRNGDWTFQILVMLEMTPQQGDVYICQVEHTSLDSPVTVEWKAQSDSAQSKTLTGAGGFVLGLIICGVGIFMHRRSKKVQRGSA

[13] = target: HLA-DR DRB1*04:05 (Homo sapiens, UniProt P01903+P01911, A100R/A169T/D86S/F76Y/I96L/K127E/L162R/M171V/N62H/P40V/Q125Y/R42H/S133A/S149N/S66Y/V115G/V209L/W38E)
[14] = read-out: Binding capacity/IC50 (nM) DRB4*01:01
[15] = read-out: Binding capacity/IC50 (nM) DRB5*01:01
[16] = read-out: Binding capacity/IC50 (nM) DPA1*01:03 DPB1*02:01
[17] = read-out: Binding capacity/IC50 (nM) DRB1*04:05
[18] = read-out: Binding capacity/IC50 (nM) DRB1*09:01
[19] = read-out: Binding capacity/IC50 (nM) DRB1*11:01
[20] = read-out: Binding capacity/IC50 (nM) DRB1*12:01
[21] = read-out: Binding capacity/IC50 (nM) DRB1*16:02
[22] = read-out: Binding capacity/IC50 (nM) DPA1*01:03 DPB1*04:01
[23] = read-out: Binding capacity/IC50 (nM) DPA1*02:01 DPB1*14:01

Substance | IC50 [1] | IC50 [2] | IC50 [3] | IC50 [4] | IC50 [5] | IC50 [7] | IC50 [8, 14] | IC50 [9, 15] | IC50 [10, 16] | IC50 [11] | IC50 [12] | IC50 [13, 17] | IC50 [2, 18] | IC50 [3, 19] | IC50 [4, 20] | IC50 [6, 21] | IC50 [11, 22] | IC50 [12, 23] | further results
EAVRHFPRPWLHGL-NH2 [vpr(29-42)] | > 30000 nM | 1270 nM | > 30000 nM | > 30000 nM | 112 nM | 9490 nM | 278 nM | 731 nM | 2140 nM | 17000 nM | 7690 nM | – | – | – | – | – | – | – | IC50 [6]: 367 nM
IVALIIAIVVWTIV-NH2 [vpu(13-26)] | – | – | – | – | 2030 nM | > 30000 nM | – | > 30000 nM | 29900 nM | – | – | 14900 nM | 6640 nM | 12700 nM | 12700 nM | 4360 nM | > 30000 nM | > 30000 nM | IC50 ([1]; read-out: Binding capacity/IC50 (nM) DRB1*03:01): > 30000 nM
LNKIVRMYSPVSILDI-NH2 [p24(138-153)] | – | – | – | – | – | – | 25 nM | – | – | 47 nM | – | 49 nM | 36 nM | 79 nM | – | – | – | 16 nM | IC50 [10]: 357 nM
NYPIVQNLQGQMVHQAISPR-NH2 [p17(131-132)/p24(1-18)] | – | – | – | – | 211 nM | – | 131 nM | – | 55 nM | – | – | 428 nM | 248 nM | 1130 nM | 940 nM | 68 nM | 1550 nM | 2990 nM | IC50 ([7]; read-out: Binding capacity/IC50 (nM) DRB3*02:02): 2880 nM
VGSLQYLALTALITPKK-NH2 [vif(142-158)] | 4510 nM | 64 nM | 48 nM | 1670 nM | 3.8 nM | 577 nM | – | – | 76 nM | – | 71 nM | – | – | – | – | – | 33 nM | – | IC50 [13]: 2.3 nM; IC50 [8]: 78 nM; IC50 [9]: 2.4 nM
